The values below come from patent EP4768489A1, “CYCLOBUTYL-CONTAINING COMPOUNDS” (Chia Tai Tianqing Pharmaceutical Group Co., Ltd., priority 2023, dated 2025).

Residue numbers refer to the chain shown, from its start.

Series [1] has as its target T1, AR in MDA-PCA-2B (L702H\T878A) cells (Homo sapiens, UniProt P10275, L702H/T878A).
T1 construct: Assay on degradation activity for AR in MDA-PCA-2B (L702H\T878A) cells; endogenous in cells; host or cells: MDA-PCA-2B cells
T1 sequence (P10275 1-920 L702H/T878A): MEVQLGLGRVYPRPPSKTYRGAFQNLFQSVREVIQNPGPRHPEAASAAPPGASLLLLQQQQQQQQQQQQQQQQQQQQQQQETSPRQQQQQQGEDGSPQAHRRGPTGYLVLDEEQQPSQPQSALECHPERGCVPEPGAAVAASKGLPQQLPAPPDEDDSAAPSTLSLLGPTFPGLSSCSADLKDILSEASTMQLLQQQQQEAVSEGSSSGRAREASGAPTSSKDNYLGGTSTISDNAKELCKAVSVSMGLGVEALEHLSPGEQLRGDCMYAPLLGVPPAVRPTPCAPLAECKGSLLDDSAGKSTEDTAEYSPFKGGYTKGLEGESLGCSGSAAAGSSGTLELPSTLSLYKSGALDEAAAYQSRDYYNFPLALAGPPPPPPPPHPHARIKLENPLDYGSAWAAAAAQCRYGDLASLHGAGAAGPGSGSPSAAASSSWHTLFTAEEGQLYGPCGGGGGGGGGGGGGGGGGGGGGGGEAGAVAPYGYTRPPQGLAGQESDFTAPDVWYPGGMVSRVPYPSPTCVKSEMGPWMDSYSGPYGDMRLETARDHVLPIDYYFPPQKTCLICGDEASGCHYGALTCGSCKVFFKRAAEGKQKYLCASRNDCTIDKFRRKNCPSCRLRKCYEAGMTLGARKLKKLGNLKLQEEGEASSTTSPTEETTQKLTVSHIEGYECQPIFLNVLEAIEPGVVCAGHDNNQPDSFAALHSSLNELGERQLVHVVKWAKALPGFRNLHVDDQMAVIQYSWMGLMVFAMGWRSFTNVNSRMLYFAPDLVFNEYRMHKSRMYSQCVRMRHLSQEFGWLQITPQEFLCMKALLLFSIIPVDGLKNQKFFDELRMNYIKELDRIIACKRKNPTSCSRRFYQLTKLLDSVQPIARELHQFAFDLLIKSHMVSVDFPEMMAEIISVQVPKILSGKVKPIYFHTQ
Put plainly: Assay on degradation activity for AR in MDA-PCA-2B (L702H\T878A) cells (HTRF). The format is cell-based. The conditions noted are these: 24 h; for DC50: AR degradation; for Dmax: maximum degradation rate. The procedure: (§1) The detection was carried out using the HTRF HUMAN ANDROGEN RECEPTOR DETECTION KIT (cisbio, 64ANDRPEG), 4× Supplemented Lysis buffer was prepared using the Blocking reagent stock solution (100×) and Lysis buffer stock solution (4×), and 1× Supplemented Lysis buffer was prepared using the 4× Supplemented Lysis buffer and ddH2O. Premixed antibody solutions were prepared using Detection buffer, Androgen Receptor Eu Cryptate antibody, and Androgen Receptor d2 antibody.
The cells were cultured overnight in a cell incubator. […] After the cells were oscillated for 40 min at room temperature, 16 µL of the cell lysis buffer was added to a 384-well plate, the Premixed antibody solutions were added at 4 µL/well, and the mixture was left to stand at 25 °C for 2 h. […]

Series [2] in a line: In vitro liver microsome stability, human. Format: in vitro ADME. The conditions noted are these: human liver microsomes 0.5 mg/mL, 37 °C, NADPH. Here is the method: (§2) Liver microsome incubation samples were prepared by mixing a PBS buffer (pH 7.4), a liver microsome solution (0.5 mg/mL), a test compound, and an NADPH + MgCl2 solution, followed by incubation at 37 °C and 300 rpm for 1 h. Zero-hour samples were prepared by mixing a PBS buffer (pH 7.4), a liver microsome solution (0.5 mg/mL), and a test compound. […]

The nature of the next series: in vivo. The conditions noted are these: mouse.
Another series deals with T2, AR in VCaP cells (Homo sapiens, UniProt P10275).
T2 construct: Assay on degradation activity for AR in VCaP cells; endogenous in cells; host or cells: VCaP cells
T2 sequence (P10275 1-920): T1 sequence (P10275 1-920 L702H/T878A) with H702L, A878T
Put plainly: Assay on degradation activity for AR in VCaP cells (HTRF human androgen receptor detection kit). Format: cell-based. Particulars: 24 h; for DC50: AR degradation; for Dmax: maximum degradation rate. The procedure:
as §1
The cells were cultured overnight in a cell incubator. […] After the cells were oscillated for 40 min at room temperature, 16 µL of the cell lysis buffer was added to a 384-well plate, the Premixed antibody solutions were added at 4 µL/well, and the mixture was left to stand at 25 °C for 2 h. […] Table 1. Degradation activity of compounds for AR in VCaP cells
On the technique in general: In TR-FRET formats the signal depends on donor and acceptor labels being close together.

A short description of series [3]: In vitro liver microsome stability, mouse. Format: in vitro ADME. The conditions noted are these: mouse liver microsomes 0.5 mg/mL, 37 °C, NADPH. Here is the method: as §2
In general terms: Liver microsomes are a subcellular fraction often used to study metabolism.

The nature of the next series: Mouse pharmacokinetics. The conditions noted are these: for F: Mouse i.g. (0-48 h), 10 mpk vs i.v. 1 mpk.
In the next series the test system is VCaP cells. Put plainly: Assay on inhibitory activity for VCaP cell proliferation (CCK-8). Format: cell-based. Particulars: Homo sapiens, 168 h.
Setting [4] is: ICR, mouse, plasma, iv, 1 mg/kg.
Setting [5] is: ICR, mouse, plasma, po, 10 mg/kg.

Procedure for Mouse pharmacokinetics: (§3) ICR mice weighing 18-22 g were randomized into groups of 9 after 3-5 days of acclimatization. The mice in the intragastric administration group were intragastrically given the test compound solution at a dose of 10 mg/kg (20 mg/kg or 30 mg/kg), and the mice in the intravenous injection administration group were intravenously injected with the test compound solution at a dose of 1 mg/kg.
(§4) Blood was collected from the orbit to prepare plasma samples to be tested.
(§5) 30 µL of each of the plasma samples to be tested and a standard curve sample were taken, and an acetonitrile solution containing an internal standard was added. Supernatants were obtained by protein precipitation, diluted with a 1:1 (v:v) mixed solution of acetonitrile and water, and then assayed by LC/MS/MS. Data were fitted using a non-compartmental model.
Procedure for in vivo: as §3, §4, §5

In series [1], `COc1cc(O[C@H]2C(C)(C)[C@H](NC(=O)c3ccc(N4CCC(CN5CCc6ccc7c(C8CCC(=O)NC8=O)noc7c6C5)CC4)cc3)C2(C)C)ccc1C#N` (some centres unmarked) [Compound 9] had a 50% degradation concentration (DC50) of under 500 nM and a Dmax of over 70%. In addition, the “HLM (human) Remaining amount at 60 min %” value in series [2] is recorded as over 70%.
Take `COc1cc(O[C@H]2C(C)(C)[C@H](NC(=O)c3ccc(N4CCC(CN5Cc6ccc7c(C8CCC(=O)NC8=O)noc7c6C5)CC4)cc3)C2(C)C)ccc1C#N` (some centres unmarked) [Compound 8]: in “in vivo” (iv, 1 mg/kg), the AUC at 48 h is 20200 ng·h/mL, the Vd was 1.1 L/kg, the clearance is 0.7 mL/min/kg and the half-life is 18 h. Besides, in the series “in vivo” (po, 10 mg/kg), the AUC at 48 h stood at 77600 ng·h/mL, the peak level (Cmax) was 2810 ng/mL and the half-life was 15 h. In series [1], this compound had a DC50 of under 500 nM and a Dmax of over 70%. In addition, in series [2], the “HLM (human) Remaining amount at 60 min %” value was over 70%. On AR in VCaP cells, the DC50 is under 5 nM and the Dmax was over 75%. In series [3], the “MLM (mouse) Remaining amount at 60 min %” value is given as over 70%. This compound also yielded a F in the series “Mouse pharmacokinetics” of 37.00%.
Regarding `COc1cc(O[C@H]2C(C)(C)[C@H](NC(=O)c3ccc(N4CCC(CN5Cc6ccc7c(C8CCC(=O)NC8=O)noc7c6C5)CC4)nc3)C2(C)C)ccc1C#N` (some centres unmarked) [Compound 11], in series [1], the DC50 is under 500 nM and the Dmax was over 70%. Moreover, the “HLM (human) Remaining amount at 60 min %” value in series [2] is recorded as over 70%. At AR in VCaP cells, this compound came in with a DC50 of under 5 nM and a Dmax of over 75%. Also, in series [3], the “MLM (mouse) Remaining amount at 60 min %” value is over 70%. Moreover, the concentration for half-maximal inhibition (IC50) with VCaP cells was under 2000 nM.
In the series “in vivo” (iv, 1 mg/kg), `COc1cc(O[C@H]2C(C)(C)[C@H](NC(=O)c3ccc(N4CCC(CN5CCc6ccc7c(C8CCC(=O)NC8=O)noc7c6CC5)CC4)cc3)C2(C)C)ccc1C#N` (some centres unmarked) [Compound 10] gave an AUC at 48 h of 5400 ng·h/mL, a Vd of 3.1 L/kg, a clearance of 2.83 mL/min/kg and a half-life of 13 h. Also, in “in vivo” (po, 10 mg/kg), the AUC at 48 h stood at 16200 ng·h/mL, the Cmax was 620 ng/mL and the half-life was 11 h. Moreover, in series [1], the DC50 was under 500 nM and the Dmax is over 70%. Besides, in series [2], the “HLM (human) Remaining amount at 60 min %” value was over 70%. At AR in VCaP cells, this compound returned a DC50 of under 5 nM and a Dmax of over 75%. The “MLM (mouse) Remaining amount at 60 min %” value in series [3] is listed as over 70%. This compound came in with a F in the series “Mouse pharmacokinetics” of 30.00%. Besides, the IC50 in the series with VCaP cells was under 2000 nM.
For the compound `COc1cc(O[C@H]2C(C)(C)[C@H](NC(=O)c3ccc(N4CCC(CN5CCc6ccc7c(C8CCC(=O)NC8=O)noc7c6CC5)CC4)nc3)C2(C)C)ccc1C#N` (some centres unmarked) [Compound 13], in series [1], the DC50 is under 500 nM and the Dmax is over 70%. On AR in VCaP cells, this compound came in with a DC50 of under 5 nM and a Dmax of over 75%. The “MLM (mouse) Remaining amount at 60 min %” value in series [3] is given as over 70%. In the series “Mouse pharmacokinetics” (setting [4]), this compound showed an AUC of 6810 ng·h/mL, a Vd of 2 L/kg, a clearance of 2.33 mL/min/kg and a half-life of 9.7 h. Moreover, in “Mouse pharmacokinetics” (setting [5]), the AUC stood at 28000 ng·h/mL, the Cmax was 1390 ng/mL and the half-life was 8.3 h. This compound also showed a F in “Mouse pharmacokinetics” of 41.00%. In addition, the IC50 in the series on VCaP cells is under 2000 nM.
In series [1], `COc1cc(O[C@H]2C(C)(C)[C@H](NC(=O)c3ccc(N4CCC(CN5CCc6ccc7c(C8CCC(=O)NC8=O)noc7c6C5)CC4)nc3)C2(C)C)ccc1C#N` (some centres unmarked) [Compound 12] displayed a DC50 of under 500 nM and a Dmax of over 70%. For the same compound, the “HLM (human) Remaining amount at 60 min %” value in series [2] is over 70%.

One may read the DC50 as the concentration giving 50% degradation. A higher DC50 goes with a less potent degrader. By Dmax is commonly meant the greatest extent of degradation seen. The low end stands for shallow degradation, the high end for deep degradation. By AUC is commonly meant concentration integrated over time. High values mean more exposure, low ones less exposure. What is called Vd is the apparent volume that relates the amount in the body to the concentration in plasma or blood. As a reminder, the clearance is the volume of plasma or blood freed of the substance per unit of time. A lower clearance goes with a low capacity for elimination. In general, half-life refers to the time in which the quantity being followed falls by half. What is called Cmax is the maximum level reached in the sampled fluid or tissue. One may read the IC50 as the point on the concentration scale where inhibition reaches its midpoint.
